Assay [1] relates to 3×MBT domain of L3MBTL1. Description: SILAC proteomic pull-down 3×MBT vs 3×MBTD355N from 293T nuclear extract, LC-MS/MS. Conditions: for Protein Ratio 3xMBT/D355N: SILAC ratio, 293T nuclear extract pull-down, * = protein identified in only one labeling experiment. The format is binding, human. The protocol:
Protein pull-downs were performed as described above using 600 μg of nuclear extract prepared with isotopic labels as indicated. After eluting with glutathione, 3×MBT domain was removed by dialysis into high salt and rebinding to GSH-sepharose. Bound proteins were separated by SDS-PAGE and analyzed by in-gel tryptic digest followed by LC-MS/MS. Peptides were identified using MaxQuant version 1.2.2.5 (Cox and Mann (2008) Nat. Biotechnol. 26, 1367-1372) and candidate methylated peptides were verified by manual inspection.
For stable isotope labeling by amino acids in cell culture (SILAC) experiments HEK 293T cells were grown for at least six doublings in DMEM for SILAC supplemented with 10% dialyzed fetal bovine serum (FBS), 230 mg/L L-proline and either 100 mg/L each of L-lysine and L-arginine (“light” medium), D4-L-lysine and ^13C6-L-arginine (“medium” media), or ^13C6^15N2-L-lysine and ^13C6^15N4-L-arginine (Thermo Scientific). Heavy methyl labeling used DMEM without L-Methionine or L-Cysteine supplemented with D3^13C-L-Methionine (Sigma), L-Cysteine (Sigma) and 10% dialyzed FBS.
600 μg of nuclear extract was incubated overnight rotating at 4° C. with 20 μl packed 3×MBT or 3×MBTD355N beads in a total volume of 250 μL with binding buffer. Supernatant was removed and saved for use as a loading control. Beads were washed 4×5 minutes with 0.5 mL binding buffer. Protein was eluted by incubating in 20 μL elution buffer (10 mg/mL glutathione in 50 mM Tris pH 8.0) rotating at 4° C. for four hours. Elutions from 3×MBT and 3×MBTD355N were combined and dialyzed overnight at 4° C. against 10,000× volume of dissociation buffer (50 mM Tris pH 7.5, 750 mM NaCl) in a 0.1 mL Slide-A-Lyzer MINI Dialysis Device with 3.5K molecular weight cutoff (Thermo Scientific). 80 μL of GSH-Sepharose was prepared by washing briefly three times with 0.5 mL binding buffer. Dialyzed proteins were added to the GSH-Sepharose and incubated 4 hours rotating at 4° C. to deplete the GST-fusion domains. Supernatant was transferred to a fresh 1.5 mL tube. Proteins were separated by SDS-PAGE on a 10% polyacrylamide gel and stained using SilverQuest Silver Staining Kit (Life Technologies). Lanes were excised, residual 3×MBT band was removed, and gel was diced into 0.5 mm cubes. Gel pieces were destained and processed by in-gel digestion (Carlson et al. (2011) Science Signaling 4) with sequencing grade trypsin (Promega) and the peptide sample was dried completely in a vacuum centrifuge. To prepare a loading control, 2 μL each of light and heavy nuclear extract were combined, 6 μL of 8M urea was added, proteins were denatured by adding 2 μL of 100 mM dithiothreitol in digest buffer (50 mM ammonium bicarbonate) and heating to 60° C. for 1 hour, cysteine was alkylated by adding 2.2 μL 100 mg/mL iodoacetamide in digest buffer and incubating 1 hour at room temperature in darkness, and proteins were digested by adding 80 μL trypsin (Promega) at 12.5 ng/μL in digest buffer and incubating overnight at room temperature in darkness. Digestion was stopped by adding 10 μL of 10% formic acid.
Each experiment consisted of two sets of pull-downs: “forward” labeling with 3×MBT incubated with light nuclear extract and 3×MBTD355N with medium extract, and a second “reverse” labeling experiment with the label conditions swapped. Proteins were included in the results if they were quantified in both labeling directions. To determine reproducibility the entire experiment including the label swap was duplicated using independent protein preparations and a mass spectrometer at another institution.
For 3×MBT pull-down experiment #1 the gel lane was processed and peptides were loaded off-line onto a first dimension trap column (Waters Xbridge, C18, 10 μm particle size, 100 Å pore size, 5 cm packing length, 150 μm column i.d.). […]

In the next assay the target is T1, G9a and GLP (Homo sapiens, UniProt Q96KQ7+Q9H9B1).
T1 construct: endogenous in cells; host or cells: HEK 293T
T1 sequence (Q96KQ7 2-1210 limits assumed): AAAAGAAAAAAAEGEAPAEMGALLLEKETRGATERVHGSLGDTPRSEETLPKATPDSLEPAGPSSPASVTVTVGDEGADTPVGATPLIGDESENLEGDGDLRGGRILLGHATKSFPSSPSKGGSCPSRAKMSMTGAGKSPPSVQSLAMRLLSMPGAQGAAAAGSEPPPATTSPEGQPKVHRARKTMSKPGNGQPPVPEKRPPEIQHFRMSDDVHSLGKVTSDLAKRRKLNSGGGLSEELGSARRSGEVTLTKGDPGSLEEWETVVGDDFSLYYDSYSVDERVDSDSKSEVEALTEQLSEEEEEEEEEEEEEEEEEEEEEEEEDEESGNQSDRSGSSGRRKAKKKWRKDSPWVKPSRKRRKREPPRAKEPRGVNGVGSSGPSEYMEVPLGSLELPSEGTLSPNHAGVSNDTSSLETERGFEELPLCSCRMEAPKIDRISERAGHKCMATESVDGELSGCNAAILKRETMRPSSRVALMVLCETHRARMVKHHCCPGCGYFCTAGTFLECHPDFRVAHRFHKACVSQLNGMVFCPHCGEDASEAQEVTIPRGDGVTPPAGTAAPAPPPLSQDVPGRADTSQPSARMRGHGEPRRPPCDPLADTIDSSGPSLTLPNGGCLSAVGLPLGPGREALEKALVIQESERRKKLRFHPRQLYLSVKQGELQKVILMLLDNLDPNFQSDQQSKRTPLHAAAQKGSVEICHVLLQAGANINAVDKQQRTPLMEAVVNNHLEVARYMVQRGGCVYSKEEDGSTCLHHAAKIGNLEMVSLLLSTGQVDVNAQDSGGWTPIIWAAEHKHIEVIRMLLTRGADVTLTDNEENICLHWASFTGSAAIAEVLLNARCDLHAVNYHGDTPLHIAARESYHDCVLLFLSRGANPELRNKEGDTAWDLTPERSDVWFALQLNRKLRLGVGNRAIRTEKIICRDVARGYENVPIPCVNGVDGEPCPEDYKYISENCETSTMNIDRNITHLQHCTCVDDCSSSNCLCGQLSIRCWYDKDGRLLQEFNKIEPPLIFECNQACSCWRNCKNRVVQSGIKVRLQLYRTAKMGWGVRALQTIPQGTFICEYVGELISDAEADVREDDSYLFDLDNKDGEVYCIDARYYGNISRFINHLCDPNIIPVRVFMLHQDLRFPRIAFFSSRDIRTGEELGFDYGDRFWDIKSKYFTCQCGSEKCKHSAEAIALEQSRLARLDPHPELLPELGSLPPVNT
T1 sequence (Q9H9B1 2-1298 limits assumed): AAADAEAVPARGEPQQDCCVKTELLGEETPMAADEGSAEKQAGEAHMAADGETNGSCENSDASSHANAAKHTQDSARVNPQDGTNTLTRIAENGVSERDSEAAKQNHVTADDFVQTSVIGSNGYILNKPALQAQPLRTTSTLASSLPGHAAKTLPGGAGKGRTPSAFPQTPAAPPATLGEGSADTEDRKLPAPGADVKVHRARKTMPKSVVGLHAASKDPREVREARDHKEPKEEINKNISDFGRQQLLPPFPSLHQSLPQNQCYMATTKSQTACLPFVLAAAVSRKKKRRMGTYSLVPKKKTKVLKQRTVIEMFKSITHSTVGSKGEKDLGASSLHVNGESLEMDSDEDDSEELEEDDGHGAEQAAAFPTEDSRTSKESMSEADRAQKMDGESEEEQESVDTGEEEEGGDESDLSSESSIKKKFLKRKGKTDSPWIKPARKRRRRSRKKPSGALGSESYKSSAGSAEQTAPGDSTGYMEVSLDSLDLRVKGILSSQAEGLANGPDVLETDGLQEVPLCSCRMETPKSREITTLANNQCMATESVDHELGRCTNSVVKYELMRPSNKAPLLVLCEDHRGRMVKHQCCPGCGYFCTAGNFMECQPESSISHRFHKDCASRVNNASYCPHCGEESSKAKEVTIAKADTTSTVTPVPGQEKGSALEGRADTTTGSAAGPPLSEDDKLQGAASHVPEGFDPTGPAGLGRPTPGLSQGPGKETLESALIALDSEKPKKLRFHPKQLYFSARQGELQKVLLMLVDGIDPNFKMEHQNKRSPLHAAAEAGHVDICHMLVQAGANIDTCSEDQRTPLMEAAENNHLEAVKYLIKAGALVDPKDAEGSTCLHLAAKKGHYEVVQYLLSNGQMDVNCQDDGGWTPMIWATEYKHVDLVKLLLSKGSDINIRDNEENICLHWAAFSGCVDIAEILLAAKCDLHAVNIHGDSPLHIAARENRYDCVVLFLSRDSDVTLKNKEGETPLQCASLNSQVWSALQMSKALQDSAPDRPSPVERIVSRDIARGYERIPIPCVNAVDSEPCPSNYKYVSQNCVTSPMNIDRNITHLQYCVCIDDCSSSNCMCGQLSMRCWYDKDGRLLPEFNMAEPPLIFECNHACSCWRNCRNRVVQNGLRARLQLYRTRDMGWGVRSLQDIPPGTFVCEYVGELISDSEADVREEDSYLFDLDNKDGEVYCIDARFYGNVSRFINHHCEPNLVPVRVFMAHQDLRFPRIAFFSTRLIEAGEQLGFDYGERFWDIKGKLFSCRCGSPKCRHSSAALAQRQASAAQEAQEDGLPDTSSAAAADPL
Description: Triple SILAC pull-down after UNC0638 treatment of 293T cells, DMSO/UNC0638 ratio of protein captured by 3×MBT.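 As to all read-outs here: mass spectrometry (Q-Exactive) SILAC quantitation, DMSO/UNC0638 ratio computed after subtracting 3×MBTD355N mutant pull-down background, only proteins with at least twofold 3×MBT over mutant signal considered.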 Conditions: for Relative to UNC0638 UNC Heavy / Relative to UNC0638 UNC Light: SILAC ratio DMSO/UNC0638 of protein pulled down with 3xMBT; for Relative to UNC0638 UNC Heavy: UNC0638 in heavy SILAC media; for Relative to UNC0638 UNC Light: UNC0638 in light SILAC media; for Relative to UNC0638 Average: average of UNC Light and UNC Heavy experiments. The format is cell-based.

Another assay relates to H3K9me2. The assay can be described thus: Western blot of 293T whole cell extracts ±UNC0638. The format is cell-based. Conditions: 293T cells. The protocol:
For UNC0638 treatments cells were treated for 24 hours with UNC0638 at 2.5 μM or DMSO vehicle control. One experiment treated cells in light media with UNC0638, the other treated cells in heavy media. Both experiments included cells in medium media treated with DMSO for negative control pull-down with 3×MBTD355N.

The test system of assay [2] is 3×MBT domain of L3MBTL1. The assay can be described thus: Triple SILAC pull-down, 3xMBT/3xMBTD355N ratio (cytoplasmic, nuclear and chromatin fractions of 293T cells).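 As to all read-outs here: proteins quantified with MaxQuant, requiring at least two unique peptides and quantification in both label directions, normalized to the mean of proteins from a digested loading control.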 Conditions: SILAC ratio, pull-down 3xMBT vs 3xMBTD355N; for 3xMBT/D355N UNC Heavy: experiment with UNC0638 in heavy SILAC media; for 3xMBT/D355N UNC Light: experiment with UNC0638 in light SILAC media. The format is binding, human.

In the case of “TUBB2C: protein with methylated lysine identified in 3xMBT pull-down”, the “Protein Ratio 3xMBT/D355N” value in the assay with 3×MBT domain of L3MBTL1 [1] is 2.1.

As to “3×MBTD355N: 3×MBT with mutation of aspartate 355 to asparagine; abrogates binding to methyl-lysine; negative control [reference compound]”, in the assay on 3×MBT domain of L3MBTL1 [1] (SILAC), the “number of the 544 identified proteins enriched at 2-fold versus the other domain” value is recorded as 3 and the “percentage of the 544 identified proteins enriched at 2-fold versus the other domain” value turned out to be 0.6%.

In the case of `COc1cc2c(NC3CCN(C(C)C)CC3)nc(C3CCCCC3)nc2cc1OCCCN1CCCC1` [UNC0638, reference compound], the “number of candidate G9a/GLP substrates showing reduced association with 3×MBT in response to treatment” value at G9a and GLP (293T cells, 2.5 μM, 24 hours) is 23. In addition, the “levels of the G9a target H3K9me2 in treated cells” value in the assay with H3K9me2 is “reduced”.

On to “hnRNP K: protein with methylated lysine identified in 3xMBT pull-down”, for which the “Protein Ratio 3xMBT/D355N” value with 3×MBT domain of L3MBTL1 [1] was 8.0.

Consider “hn RNP A/B: protein with methylated lysine identified in 3xMBT pull-down”, for which, in the assay on 3×MBT domain of L3MBTL1 [1], the “Protein Ratio 3xMBT/D355N” value is 13.4.

Consider SNRPA, for which, in the assay with 3×MBT domain of L3MBTL1 [2], the “3xMBT/D355N UNC Heavy” value is given as 4.73 log base 2 and the “3xMBT/D355N UNC Light” value came out at 5.10 log base 2. Further, in the assay with G9a and GLP, the “Relative to UNC0638 UNC Heavy” value amounted to 0.16 log base 2, the “Relative to UNC0638 UNC Light” value came to 0.11 log base 2 and the “Relative to UNC0638 Average” value came out at 0.14 log base 2.

For DNM2, in the assay with 3×MBT domain of L3MBTL1 [2], the “3xMBT/D355N UNC Heavy” value is given as 0.05 log base 2 and the “3xMBT/D355N UNC Light” value worked out at 0.57 log base 2. In the assay with G9a and GLP, the “Relative to UNC0638 UNC Light” value turned out to be 0.54 log base 2 and the “Relative to UNC0638 Average” value is recorded as 0.54 log base 2.

On to ILF2, for which, in the assay on 3×MBT domain of L3MBTL1 [2], the “3xMBT/D355N UNC Heavy” value is given as 3.72 log base 2 and the “3xMBT/D355N UNC Light” value worked out at 3.45 log base 2. Besides, in the assay with G9a and GLP, the “Relative to UNC0638 UNC Heavy” value is 0.15 log base 2, the “Relative to UNC0638 UNC Light” value was found to be 0.22 log base 2 and the “Relative to UNC0638 Average” value worked out at 0.18 log base 2.
